Usually EC50 stands for the concentration at which the effect is half-maximal. The MIC is the smallest concentration in the dilution series that meets the test's criterion for growth inhibition.

The subject of assay [1] is A. actinomycetemcomitans. In words: microbe, parasite or virus in culture. It is filed as cell-based.
The subject of assay [2] is A. actinomycetemcomitans Y4.
The subject of a further assay is P. aeruginosa biofilms. The conditions noted are these: Overhage 2008; cited from earlier work.
The test system of assay [3] is K12 E. coli (ATCC #25404).
The next assay concerns F. novicida. The conditions noted are these: 24 h.
The test system of the next assay is F. novicida biofilm. It is filed as cell-based, F. novicida (F. tularensis novicida).
Assay [4] deals with A. actinomycetemcomitans. As to conditions: cited from earlier work.
The subject of the next assay is P. aeruginosa. As to conditions: P. aeruginosa (ATCC 27853); cited from earlier work.
In another assay the test system is E. coli (ATCC 25922). As to conditions: cited from earlier work.
Where [5] appears, read: Aggregatibacter actinomycetemcomitans.
The mark [6] stands for this setting: Aggregatibacter actinomycetemcomitans, read-out: EC50 in μM.
Setting [7] is: read-out: EC50 uM, E. coli, 3 h incubation, CFU enumeration.

Values after ≈ are worked out from the molar mass of the structure shown. Read-outs that look alike come from different tables or passages of the source. No end group written: not given here. Where only a bound is given, the exact number is not on record here.

Turning to `CC1(C)S[C@@H]2[C@H](NC(=O)[C@H](N)c3ccc(O)cc3)C(=O)N2[C@H]1C(=O)O` [amoxicillin], the values for the EC50 with A. actinomycetemcomitans [1] (setting [5]) and with A. actinomycetemcomitans [1] (setting [6]) were 29.6 µg/mL and 80.9 µM, respectively.

As for gentamicin, the “EC50 (μg/mL)” value in the assay on A. actinomycetemcomitans [1] came out at 1.597 µg/mL. In addition, the concentration giving a half-maximal response (EC50) with A. actinomycetemcomitans [1] (read-out: EC50) was 3.34 µM.

“RLKELITTGGQKIGEKIRRIGQRIKDFFKNLQPREEKS [K9CATH]” showed an EC50 in assay [2] (24 h) of 0.111 µM.

Consider “hBD-4: antimicrobial listed in Table 6, not further described (EFELDRICGYGTARCRKKCRSQEYRIGRCPNTYACCLRKWDESLLNRTKP; UniProt Q8WTQ1 23-72, looked up)”, for which, in [2], the “EC50 (μg/mL)” value was at least 100 µg/mL. In addition, the EC50 in assay [2] (read-out: EC50 in μM) is above 22.9 µM.

For `CC[C@H](C)[C@H](NC(=O)[C@H](CCCCN)NC(=O)[C@H](CCC(=O)O)NC(=O)[C@H](CCCCN)NC(=O)[C@H](CO)NC(=O)[C@H](CCCCN)NC(=O)[C@H](CCCNC(=N)N)NC(=O)[C@H](Cc1ccccc1)NC(=O)[C@H](Cc1ccccc1)NC(=O)[C@H](CC(=O)O)NC(=O)CNC(=O)[C@H](CC(C)C)NC(=O)[C@@H](N)CC(C)C)C(=O)NCC(=O)N[C@@H](CCCCN)C(=O)N[C@@H](CCC(=O)O)C(=O)N[C@@H](Cc1ccccc1)C(=O)N[C@@H](CCCCN)C(=O)N[C@@H](CCCNC(=N)N)C(=O)N[C@H](C(=O)N[C@H](C(=O)N[C@@H](CCC(N)=O)C(=O)N[C@@H](CCCNC(=N)N)C(=O)N[C@H](C(=O)N[C@@H](CCCCN)C(=O)N[C@@H](CC(=O)O)C(=O)N[C@@H](Cc1ccccc1)C(=O)N[C@@H](CC(C)C)C(=O)N[C@@H](CCCNC(=N)N)C(=O)N[C@@H](CC(N)=O)C(=O)N[C@@H](CC(C)C)C(=O)N[C@H](C(=O)N1CCC[C@H]1C(=O)N[C@@H](CCCNC(=N)N)C(=O)N[C@H](C(=O)N[C@@H](CCC(=O)O)C(=O)N[C@@H](CO)C(=O)O)[C@@H](C)O)C(C)C)[C@@H](C)CC)C(C)C)[C@@H](C)CC` [LL-37], the “concentration inhibiting formation of biofilms” value in the assay on P. aeruginosa biofilms is 0.05 µg/mL. Also, the “EC50 ug/mL” value in [2] amounted to 6.24 µg/mL (≈ 1.39 µM). Moreover, the EC50 worked out at 6.224 µg/mL in assay [2]; 1.39 µM in [2] (24 h); 0.519 µg/mL in assay [3] (E. coli K12); 0.514 µg/mL in assay [3] (E. coli, 3 h incubation, CFU enumeration); 0.114 µM in [3] (setting [7]). Moreover, the “EC50 (μg/mL)” value in assay [2] turned out to be 6.244 µg/mL (≈ 1.39 µM). In addition, the MIC entry in the assay on F. novicida is “greater than 250 μg/ml”. In addition, in the assay with F. novicida biofilm, the “concentration with significant inhibition of biofilm formation” value was at most 3.8 ng/mL. Besides, the inhibition of growth entry in the assay with F. novicida biofilm is reported as “no inhibition of growth”. Also, in the assay with A. actinomycetemcomitans [4], the ED99 is 8.2 µg/mL. Besides, the MBC result with A. actinomycetemcomitans [4] was “above 100 μg/mL”.

Turning to “GLLSRLRDFLSDRGRRLGEKIERIGQKIKDLSEFFQS [PMAP-37]”, the figures for the MIC in the assay on P. aeruginosa and with E. coli (ATCC 25922) were 4 µM and 1 µM, respectively. In assay [2] (24 h), this compound returned an EC50 of 1.25 µM.

Consider GGLRSLGRKILRAWKKYGPIIVPIIRIG [BMAP-28], for which the EC50 in assay [2] (24 h) worked out at 0.215 µM.

As to KRFKKFFKKPK-NH2 [ATRA-1P], the EC50 in assay [3] (setting [7]) was found to be 4.76 µM.

With `CCC[C@@H]1C[C@@H](C(=O)N[C@@H]([C@H]2O[C@H](SC)[C@H](O)[C@@H](O)[C@H]2O)[C@H](C)Cl)N(C)C1` [clindamycin], the concentration giving a half-maximal response (EC50) in the assay on A. actinomycetemcomitans [1] (setting [5]) was above 250 µg/mL; in the assay on A. actinomycetemcomitans [1] (setting [6]) it was above 542 µM.

On to KRAKKFFKKLK-NH2 [ATRA-1A], for which the EC50 in [3] (setting [7]) came out at 0.659 µM.

In turn, “GLRKRLRKFRNKIKEKLKKIGQKIQGLLPKLAPRTDY [CAP-18]” registered an EC50 in assay [2] (24 h) of 1.59 µM.

With `CC1(C)S[C@@H]2[C@H](NC(=O)[C@H](N)c3ccccc3)C(=O)N2[C@H]1C(=O)O` [ampicillin], the EC50 in the assay with A. actinomycetemcomitans [1] (setting [5]) turned out to be 75 µg/mL; in the assay on A. actinomycetemcomitans [1] (setting [6]), 215 µM.

Turning to `CC[C@H]1OC(=O)[C@H](C)[C@@H](O[C@H]2C[C@@](C)(OC)[C@@H](O)[C@H](C)O2)[C@H](C)[C@@H](O[C@@H]2O[C@H](C)C[C@H](N(C)C)[C@H]2O)[C@](C)(O)C[C@@H](C)CN(C)[C@H](C)[C@@H](O)[C@]1(C)O` [azithromycin], the EC50 with A. actinomycetemcomitans [1] (setting [5]) was 34.4 µg/mL; in the assay with A. actinomycetemcomitans [1] (setting [6]), 45.9 µM.

In the case of `Cc1ncc([N+](=O)[O-])n1CCO` [metronidazole], the values for the EC50 with A. actinomycetemcomitans [1] (setting [5]) and in the assay with A. actinomycetemcomitans [1] (setting [6]) were 19.5 µg/mL and 114 µM, respectively.

Values taken from patent US20120149631A1 (priority 2009, published 2012).
